Literature values in US20050079136A1, “Aerosol formulations of delta tetrahydrocannabinol” (priority 2001, published 2005).

Test system: children with cancer

CCCCCc1cc(O)c2c(c1)OC(C)(C)[C@@H]1CC=C(C)C[C@@H]21 [Δ^8 THC, Δ^8 Tetrahydrocannabinol]
incidence of nausea: greatly reduced | side effects: no significant side effects
